# In US6372770B1, “Benzoxazoles” (Euro-Celtique, S.A., priority 1994, dated 2002):
# Counter-ions that a name gives are not always drawn.
# Columns and labels:
# PDE IV = system: T1, PDE IV; experiment: Type IV PDE inhibition, hydrolysis of [3H]-cyclic AMP; type: biochemical, bovine; settings: Type IV PDE isolated from bovine tracheal smooth muscle; 0.2 μM cyclic AMP; read-out: PDE IV IC50
# T1 construct: PDE IV IC50; other: Type IV PDE isolated from bovine tracheal smooth muscle; rolipram run in the
# Description: The PDE IV inhibitory compounds of the present invention may be examined for their PDE IV inhibitory effects via the techniques set forth in the following examples, wherein the ability of the compounds to inhibit PDE IV isolated from bovine tracheal smooth muscle is set forth.
# The Type IV PDE is isolated from bovine tracheal smooth muscle using a procedure similar to that previously described by Silver, P. J. et al., Eur. J. Pharmacol. 150:85,1988.(1). Briefly, smooth muscle from bovine trachea is minced and homogenized using a polytron in 10 volumes of an extraction buffer containing 10 mM Tris-acetate (pH 7.5), 2 mM magnesium chloride, 1 mM dithiothreitol and 2,000 units/ml of aprotinin. This and all subsequent procedures are performed at 0-4° C. The homogenate is sonicated and then centrifuged at 48,000×g for 30 minutes. The resulting supernatant is applied to a DEAE Trisacryl M column previously equilibrated with sodium acetate and dithiothreitol. After applications of the sample, the column is washed with sodium acetate/dithiothreitol, after whlich the different forms of PDE are eluted from the column using a linear Tris-HCl/NaCl gradient. Fractions containing Type IV PDE are collected, dialyzed and concentrated to 14% of the original volume. The concentrated fractions are diluted to 50% with ethylene glycol and stored at −20° C.
# (§1) Enzyme activity is assessed by measuring the hydrolysis of [^3H]-cyclic AMP, as described by Thompson, W. J. et al., Adv. Cyclic Nucleotide Res. 10:69, 1979. The cyclic AMP concentration used in this assay is 0.2 μM, which approximates the Km value. Protein concentration is adjusted to ensure that no more than 15% of the available substrate is hydrolyzed during the incubation period.
# (§2) All test compounds are dissolved in dimethyl sulfoxide (final concentration of 2.5%). This concentration of dimethyl sulfoxide inhibits enzyme activity by approximately 10%.
# PDE III = target: T2, PDE III (Homo sapiens, UniProt Q14432); experiment: Type III PDE inhibition, hydrolysis of [3H]-cyclic AMP; type: biochemical; settings: for IC50: Type III PDE isolated from human platelets, 0.2 μM cyclic AMP
# T2 construct: Fractions containing PDE III activity are pooled and dialyzed overnight; from tissue; host or cells: human platelets
# T2 sequence (Q14432 whole entry): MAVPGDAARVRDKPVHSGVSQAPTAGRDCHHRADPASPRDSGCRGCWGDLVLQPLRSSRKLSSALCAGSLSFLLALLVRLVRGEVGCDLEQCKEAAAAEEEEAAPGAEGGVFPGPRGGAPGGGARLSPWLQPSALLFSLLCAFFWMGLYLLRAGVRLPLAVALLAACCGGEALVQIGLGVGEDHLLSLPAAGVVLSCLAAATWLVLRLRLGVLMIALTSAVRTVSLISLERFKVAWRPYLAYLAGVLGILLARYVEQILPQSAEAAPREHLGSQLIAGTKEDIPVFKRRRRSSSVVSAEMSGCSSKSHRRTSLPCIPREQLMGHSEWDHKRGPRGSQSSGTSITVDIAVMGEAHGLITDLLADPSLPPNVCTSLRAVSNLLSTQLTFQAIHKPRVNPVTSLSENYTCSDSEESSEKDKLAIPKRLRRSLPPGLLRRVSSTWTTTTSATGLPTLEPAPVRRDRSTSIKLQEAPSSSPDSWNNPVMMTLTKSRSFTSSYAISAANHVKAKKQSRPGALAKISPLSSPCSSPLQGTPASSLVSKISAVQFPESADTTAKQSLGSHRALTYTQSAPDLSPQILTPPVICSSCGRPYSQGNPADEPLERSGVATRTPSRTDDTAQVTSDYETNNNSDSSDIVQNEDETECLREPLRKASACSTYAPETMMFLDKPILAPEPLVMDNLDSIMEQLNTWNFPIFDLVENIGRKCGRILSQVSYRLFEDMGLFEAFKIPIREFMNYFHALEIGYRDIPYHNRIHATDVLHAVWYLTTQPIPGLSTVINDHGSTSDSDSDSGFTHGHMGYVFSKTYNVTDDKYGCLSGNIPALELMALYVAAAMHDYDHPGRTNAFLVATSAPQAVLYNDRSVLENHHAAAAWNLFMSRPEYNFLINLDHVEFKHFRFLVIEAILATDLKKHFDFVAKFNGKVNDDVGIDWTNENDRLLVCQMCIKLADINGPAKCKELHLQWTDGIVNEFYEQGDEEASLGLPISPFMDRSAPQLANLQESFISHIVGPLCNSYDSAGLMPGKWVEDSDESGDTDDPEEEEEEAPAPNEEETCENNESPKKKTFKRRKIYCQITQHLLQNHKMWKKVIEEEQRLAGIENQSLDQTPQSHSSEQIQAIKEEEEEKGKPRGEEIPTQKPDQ
# Method: The Type III PDE is isolated from human platelets using a procedure similar to that previously described by Washer, R. E. et al., Biochem. Pharmacol., 35:787, 1986. Briefly, 1-2 units of platelets are suspended in an equal volume of buffer (20 mM Tris-HCl, pH 7.5, containing 2 mM magnesium acetate, 1 mM dithiothreitol, and 5 mM Na2EDTA). The proteinase inhibitor phenylmethyl-sulfonyl fluoride (PMSF) is also included in this buffer at a final concentration of 200 μM. The suspension is homogenized using a polytron and the homogenate centrifuged at 100,000×g for 60 minutes. This and all subsequent procedures are performed at 0-4° C. The supernatant is then filtered through four layers of gauze and applied to a DEAE-Trisacryl M column, previously equilibrated with buffer B (20 mM Tris-HCl, pH 7.5, containing 1 mM magnesium acetate, 1 mM dithiothreitol and 200 μM PMSF). After application of the sample, the column is washed with several bed volumes of buffer B, after which the different forms of PDE are eluted from the column using two successive linear NaCl gradients (0.05-0.15 M, 300 ml total; 0.15-0.40 M, 200 ml total). Five ml fractions are collected and assayed for cyclic AMP and cyclic GMP PDE activity. Fractions containing PDE III activity are pooled and dialyzed overnight against 4 L of buffer B. The dialyzed PDE III is then concentrated to 10% of the original volume, diluted to 50% with ethylene glycol monoethyl ether and stored at −20° C. PDE III can typically be retained for up to four weeks with little or no loss of activity.
# as §1, with “approximates to” for “approximates”
# as §2
Molecule,IC50 (PDE IV),IC50 (PDE III),inhibition at 10 µM (PDE III; at 10 μM)
2-(3-Cyclopentyloxy-4-methoxybenzyl)-5-chloro-7-(2-hydroxyethyl)benzoxazole Carbamate [Example 28],0.7 µM,36.8 µM,–
2-(3-cyclopentyloxy-4-methoxybenzyl)-5-chlorobenzoxazole-7-ethanal Oxime [Example 31],1.66 µM,> 300 µM,–
"C=CCc1cc(Cl)cc2nc(Cc3ccc(OC)c(OC4CCCC4)c3)oc12 [Example 1, 7-Allyl-5-chloro-2-(3-cyclopentyloxy-4-methoxybenzyl)-benzoxazole]",–,> 300 µM,22%
"CC(C)(C)c1cc(Cc2nc3cc(Cl)cc(C#Cc4ccccn4)c3o2)cc(C(C)(C)C)c1O [Example 2, 5-Chloro-2-(3,5-di-t-butyl-4-hydroxy-benzyl)-7(2-(2-pyridyl)-ethynyl)-benzoxazole]",0.01 µM,–,–
"CC(C)(C)c1cc(Cc2nc3cc(Cl)cc(C#Cc4nccs4)c3o2)cc(C(C)(C)C)c1O [Example 3, 5-Chloro-2-(3,5-di-t-butyl-4-hydroxy-benzyl)-7-(2-(2-thiazolyl)-ethynyl)-benzoxazole]",0.01 µM,–,–
"COc1ccc(Cc2nc3cc(Cl)cc(Br)c3o2)cc1OC1CCCC1 [Example 4, 7-Bromo-5-chloro-2-(3-cyclopentyloxy-4-methoxybenzyl)-benzoxazole]",25.1 µM,7.4 µM,–
"COc1ccc(Cc2nc3cccc([N+](=O)[O-])c3o2)cc1OC1CCCC1 [Example 6, 2-(3-Cyclopentyloxy-4-methoxybenzyl)-7-nitro-benzoxazole]",1.6 µM,0.6 µM,–
"COc1ccc(Cc2nc3c(O)cccc3o2)cc1OC1CCCC1 [Example 7, 2-(3-Cyclopentyloxy-4-methoxybenzyl)-4-hydroxy-benzoxazole]",0.5 µM,124 µM,–
"COc1ccc(Cc2nc3c(OC(C)=O)cccc3o2)cc1OC1CCCC1 [Example 8, 4-Acetoxy-2-(3-cyclopentyloxy-4-methoxybenzyl)-benzoxazole]",0.75 µM,158 µM,–
"COc1ccc(Cc2nc3c(OCc4ccccn4)cccc3o2)cc1OC1CCCC1 [Example 10, 2-((3-Cyclopentyloxy-4-methoxy)benzyl)-4-(2-pyridylmethoxy)-benzoxazole Hydrochloride]",0.53 µM,> 300 µM,–
"COc1ccc(Cc2nc3cccc(N)c3o2)cc1OC1CCCC1 [Example 13, 7-Amino-2-((3-Cyclopentyloxy-4-methoxy)benzyl)-benzoxazole Hydrochloride]",13.7 µM,253 µM,–
"COc1ccc(Cc2nc3c(OC)cccc3o2)cc1OC1CCCC1 [Example 14, 2-((3-Cyclopentyloxy-4-methoxy)benzyl)-4-methoxy-benzoxazole]",1.99 µM,49.2 µM,–
"COc1ccc(Cc2nc3cccc(NC(=O)c4cccnc4)c3o2)cc1OC1CCCC1 [Example 15, 2-((3-Cyclopentyloxy-4-methoxy)benzyl)-7-(nicotinoyl-amino)-benzoxazole]",4.79 µM,177 µM,–
"COc1ccc(Cc2nc3cccc(NC(=O)c4ccncc4)c3o2)cc1OC1CCCC1 [Example 16, 2-((3-Cyclopentyloxy-4-methoxy)benzyl)-7-(isonicotinoyl-amino)-benzoxazole Hydrochloride]",6.03 µM,43.9 µM,–
"COc1ccc(Cc2nc3cccc(NC(=O)c4ccccn4)c3o2)cc1OC1CCCC1 [Example 17, 2-((3-Cyclopentyloxy-4-methoxy)benzyl)-7-(2-pyridine-carbonylamino)-benzoxazole]",0.76 µM,121 µM,–
"COc1ccc(Cc2nc3cccc(NC(=O)OCc4ccccc4)c3o2)cc1OC1CCCC1 [Example 18, 7-((Benzyloxycarbonyl)amino)-2-((3-Cyclopentyloxy-4-methoxy)-benzyl)-benzoxazole]",3.43 µM,> 300 µM,–
"COc1ccc(Cc2nc3cccc(Br)c3o2)cc1OC1CCCC1 [Example 19, 2-((3-Cyclopentyloxy-4-methoxy)benzyl)-7-bromo-benzoxazole]",0.47 µM,2.8 µM,–

Molecule,IC50 (PDE IV),IC50 (PDE III),inhibition at 10 µM (PDE III; at 10 μM)
"CC(C)c1cc(Cc2nc3c(O)cccc3o2)cc(C(C)C)c1O [Example 20, 2-((3,5-Di-isopropyl-4-hydroxy)benzyl)-4-hydroxy-benzoxazole]",3.03 µM,34.3 µM,–
"Cc1cc(Cc2nc3c(O)cccc3o2)cc(C)c1O [Example 21, 2-((3,5-Dimethyl-4-hydroxy)benzyl)-4-hydroxybenzoxazole]",24.5 µM,105 µM,–
CC(C)(C)c1cc(Cc2nc3cccc(C#Cc4ccccn4)c3o2)cc(C(C)(C)C)c1O [Example 22],0.07 µM,–,–
CC(C)c1cc(Cc2nc3cccc(C#Cc4ccccn4)c3o2)cc(C(C)C)c1O [Example 23],0.26 µM,152 µM,–
"COc1ccc(Cc2nc3cc(Cl)cc(CCO)c3o2)cc1OC1CCCC1 [Example 27, 2-(3-Cyclopentyloxy-4-methoxybenzyl)-5-chloro-7-(2-hydroxyethyl)Benzoxazole]",0.65 µM,38.1 µM,–
"COc1ccc(Cc2nc3cc(Cl)cc(CC(=O)O)c3o2)cc1OC1CCCC1 [Example 29, 2-(3-Cyclopentyloxy-4-methoxybenzyl)-5-chlorobenzoxazole-7-acetic Acid]",11.2 µM,100 µM,–
"COc1ccc(Cc2nc3cc(Cl)cc(CC(N)=O)c3o2)cc1OC1CCCC1 [Example 30, 2-(3-Cyclopentyloxy-4-methoxybenzyl)-5-chlorobenzoxazole-7-acetamide]",2.92 µM,128 µM,–
Nc1cccc2nc(-c3cccc(Cl)c3)oc12 [Example 32],32.5 µM,> 300 µM,–
"Clc1cccc(-c2nc3cccc(NCc4ccccn4)c3o2)c1 [Example 33, 2-(3-chlorophenyl)-7-(2-pyridylmethylamino)benzoxazole]",9.1 µM,173 µM,–
"COc1ccc(Cc2nc3cccc(NCc4cccnc4)c3o2)cc1OC1CCCC1 [Example 34, 2-(3-Cyclopentyloxy-4-methoxybenzyl)-7-(3-pyridylmethylamino)Benzoxazole]",1 µM,33.2 µM,–
"COc1ccc(Cc2nc3cccc(NCc4ncc[nH]4)c3o2)cc1OC1CCCC1 [Example 35, 2-(3-Cyclopentyloxy-4-methoxybenzyl)-7-(2-imidazolylmethylamino)Benzoxazole]",19.3 µM,> 300 µM,–
"COc1ccc(CNc2cccc3nc(-c4cccc(Cl)c4)oc23)cc1OC1CCCC1 [Example 36, 2-(3-Chlorophenyl)-7-(3-cyclopentyloxy-4-methoxy-benzylamino)Benzoxazole]",15.8 µM,> 300 µM,–
"OCCCc1cc(Cl)cc2nc(Cc3ccccc3)oc12 [Example 37, 2-Benzyl-5-chloro-7-(3-hydroxy-1-propyl)Benzoxazole]",39.1 µM,77 µM,–
"C=CCc1cc(Cl)cc2nc(Cc3ccccc3Cl)oc12 [Example 38, 2-(2-Chlorobenzyl)-5-chloro-7-allylbenzoxazole]",5.4 µM,107 µM,–
"COCCCc1cc(Cl)cc2nc(Cc3ccccc3Cl)oc12 [Example 39, 2-(2-Chlorobenzyl)-5-chloro-7-(3-methoxy-1-propyl)Benzoxazole]",15.2 µM,53.9 µM,–
"CCCc1cc(Cl)cc2nc(Cc3ccc(OC)c(OC4CCCC4)c3)oc12 [Example 40, 2-(3-Cyclopentyloxy-4-methoxybenzyl)-5-chloro-7-propylbenzoxazole]",0.92 µM,> 300 µM,–
